Laboratory results: the NIST ThermoML archive (doi:10.1016/j.jct.2012.06.012)
± gives the expanded uncertainty stated by the source.

Test: xn = mol fraction of the nth substance listed
Conditions: Liquid, Vibrating tube method

CCCCCCCCCC [decane] + CCO
mass density (352.7 K, 1000 kPa, x2 = 0.1011): 683.33 ± 0.23 kg/m3
mass density (352.7 K, 2000 kPa, x2 = 0.1011): 684.45 ± 0.25 kg/m3
mass density (352.7 K, 3000 kPa, x2 = 0.1011): 685.55 ± 0.26 kg/m3
mass density (352.7 K, 4000 kPa, x2 = 0.1011): 686.65 ± 0.27 kg/m3
mass density (352.7 K, 5000 kPa, x2 = 0.1011): 687.72 ± 0.29 kg/m3
mass density (352.7 K, 6000 kPa, x2 = 0.1011): 688.78 ± 0.3 kg/m3
mass density (352.7 K, 7000 kPa, x2 = 0.1011): 689.84 ± 0.32 kg/m3
mass density (352.7 K, 8000 kPa, x2 = 0.1011): 690.9 ± 0.33 kg/m3
mass density (352.7 K, 9000 kPa, x2 = 0.1011): 691.94 ± 0.35 kg/m3
mass density (352.7 K, 10000 kPa, x2 = 0.1011): 692.96 ± 0.36 kg/m3
mass density (352.7 K, 11000 kPa, x2 = 0.1011): 693.98 ± 0.37 kg/m3
mass density (352.7 K, 12000 kPa, x2 = 0.1011): 695 ± 0.39 kg/m3
mass density (352.7 K, 13000 kPa, x2 = 0.1011): 695.99 ± 0.4 kg/m3
mass density (352.7 K, 14000 kPa, x2 = 0.1011): 696.97 ± 0.42 kg/m3
mass density (352.7 K, 15000 kPa, x2 = 0.1011): 697.93 ± 0.43 kg/m3
mass density (352.7 K, 16000 kPa, x2 = 0.1011): 698.88 ± 0.44 kg/m3
mass density (352.7 K, 17000 kPa, x2 = 0.1011): 699.83 ± 0.46 kg/m3
mass density (352.7 K, 18000 kPa, x2 = 0.1011): 700.74 ± 0.47 kg/m3
mass density (352.7 K, 19000 kPa, x2 = 0.1011): 701.63 ± 0.49 kg/m3
mass density (352.7 K, 20000 kPa, x2 = 0.1011): 702.51 ± 0.5 kg/m3
mass density (352.76 K, 1000 kPa, x2 = 0.7526): 702.43 ± 0.22 kg/m3
mass density (352.76 K, 2000 kPa, x2 = 0.7526): 703.63 ± 0.23 kg/m3
mass density (352.76 K, 3000 kPa, x2 = 0.7526): 704.82 ± 0.25 kg/m3
mass density (352.76 K, 4000 kPa, x2 = 0.7526): 706.01 ± 0.26 kg/m3
mass density (352.76 K, 5000 kPa, x2 = 0.7526): 707.19 ± 0.27 kg/m3
mass density (352.76 K, 6000 kPa, x2 = 0.7526): 708.35 ± 0.29 kg/m3
mass density (352.76 K, 7000 kPa, x2 = 0.7526): 709.51 ± 0.3 kg/m3
mass density (352.76 K, 8000 kPa, x2 = 0.7526): 710.66 ± 0.31 kg/m3
mass density (352.76 K, 9000 kPa, x2 = 0.7526): 711.8 ± 0.33 kg/m3
mass density (352.76 K, 10000 kPa, x2 = 0.7526): 712.92 ± 0.34 kg/m3
mass density (352.76 K, 11000 kPa, x2 = 0.7526): 714.03 ± 0.35 kg/m3
mass density (352.76 K, 12000 kPa, x2 = 0.7526): 715.12 ± 0.36 kg/m3
mass density (352.76 K, 13000 kPa, x2 = 0.7526): 716.21 ± 0.38 kg/m3
mass density (352.76 K, 14000 kPa, x2 = 0.7526): 717.27 ± 0.39 kg/m3
mass density (352.76 K, 15000 kPa, x2 = 0.7526): 718.31 ± 0.4 kg/m3
mass density (352.76 K, 16000 kPa, x2 = 0.7526): 719.35 ± 0.42 kg/m3
mass density (352.76 K, 17000 kPa, x2 = 0.7526): 720.36 ± 0.43 kg/m3
mass density (352.76 K, 18000 kPa, x2 = 0.7526): 721.35 ± 0.44 kg/m3
mass density (352.76 K, 19000 kPa, x2 = 0.7526): 722.32 ± 0.45 kg/m3
mass density (352.76 K, 20000 kPa, x2 = 0.7526): 723.29 ± 0.47 kg/m3
mass density (352.85 K, 1000 kPa, x2 = 0.2507): 684.78 ± 0.23 kg/m3
mass density (352.85 K, 2000 kPa, x2 = 0.2507): 685.92 ± 0.24 kg/m3
mass density (352.85 K, 3000 kPa, x2 = 0.2507): 687.03 ± 0.26 kg/m3
mass density (352.85 K, 4000 kPa, x2 = 0.2507): 688.14 ± 0.27 kg/m3
mass density (352.85 K, 5000 kPa, x2 = 0.2507): 689.24 ± 0.29 kg/m3
mass density (352.85 K, 6000 kPa, x2 = 0.2507): 690.33 ± 0.3 kg/m3
mass density (352.85 K, 7000 kPa, x2 = 0.2507): 691.41 ± 0.32 kg/m3
mass density (352.85 K, 8000 kPa, x2 = 0.2507): 692.48 ± 0.33 kg/m3
mass density (352.85 K, 9000 kPa, x2 = 0.2507): 693.55 ± 0.34 kg/m3
mass density (352.85 K, 10000 kPa, x2 = 0.2507): 694.61 ± 0.36 kg/m3
mass density (352.85 K, 11000 kPa, x2 = 0.2507): 695.65 ± 0.37 kg/m3
mass density (352.85 K, 12000 kPa, x2 = 0.2507): 696.68 ± 0.39 kg/m3
mass density (352.85 K, 13000 kPa, x2 = 0.2507): 697.7 ± 0.4 kg/m3
mass density (352.85 K, 14000 kPa, x2 = 0.2507): 698.7 ± 0.41 kg/m3
mass density (352.85 K, 15000 kPa, x2 = 0.2507): 699.68 ± 0.43 kg/m3
mass density (352.85 K, 16000 kPa, x2 = 0.2507): 700.65 ± 0.44 kg/m3
mass density (352.85 K, 17000 kPa, x2 = 0.2507): 701.61 ± 0.45 kg/m3
mass density (352.85 K, 18000 kPa, x2 = 0.2507): 702.54 ± 0.47 kg/m3
mass density (352.85 K, 19000 kPa, x2 = 0.2507): 703.46 ± 0.48 kg/m3
mass density (352.85 K, 20000 kPa, x2 = 0.2507): 704.34 ± 0.5 kg/m3
mass density (362.64 K, 1000 kPa, x2 = 0.1011): 675.19 ± 0.23 kg/m3
mass density (362.64 K, 1000 kPa, x2 = 0.4963): 680.64 ± 0.23 kg/m3
mass density (362.64 K, 1000 kPa, x2 = 0.9014): 707.28 ± 0.22 kg/m3
mass density (362.64 K, 2000 kPa, x2 = 0.1011): 676.37 ± 0.25 kg/m3
mass density (362.64 K, 2000 kPa, x2 = 0.4963): 681.93 ± 0.24 kg/m3
mass density (362.64 K, 2000 kPa, x2 = 0.9014): 708.6 ± 0.23 kg/m3
mass density (362.64 K, 3000 kPa, x2 = 0.1011): 677.53 ± 0.26 kg/m3
mass density (362.64 K, 3000 kPa, x2 = 0.4963): 683.18 ± 0.26 kg/m3
mass density (362.64 K, 3000 kPa, x2 = 0.9014): 709.92 ± 0.24 kg/m3
mass density (362.64 K, 4000 kPa, x2 = 0.1011): 678.69 ± 0.28 kg/m3
mass density (362.64 K, 4000 kPa, x2 = 0.4963): 684.42 ± 0.27 kg/m3
mass density (362.64 K, 4000 kPa, x2 = 0.9014): 711.21 ± 0.26 kg/m3
mass density (362.64 K, 5000 kPa, x2 = 0.1011): 679.84 ± 0.29 kg/m3
mass density (362.64 K, 5000 kPa, x2 = 0.4963): 685.66 ± 0.29 kg/m3
mass density (362.64 K, 5000 kPa, x2 = 0.9014): 712.52 ± 0.27 kg/m3
mass density (362.64 K, 6000 kPa, x2 = 0.1011): 680.98 ± 0.31 kg/m3
mass density (362.64 K, 6000 kPa, x2 = 0.4963): 686.87 ± 0.3 kg/m3
mass density (362.64 K, 6000 kPa, x2 = 0.9014): 713.8 ± 0.28 kg/m3
mass density (362.64 K, 7000 kPa, x2 = 0.1011): 682.11 ± 0.32 kg/m3
mass density (362.64 K, 7000 kPa, x2 = 0.4963): 688.09 ± 0.32 kg/m3
mass density (362.64 K, 7000 kPa, x2 = 0.9014): 715.07 ± 0.29 kg/m3
mass density (362.64 K, 8000 kPa, x2 = 0.1011): 683.24 ± 0.34 kg/m3
mass density (362.64 K, 8000 kPa, x2 = 0.4963): 689.28 ± 0.33 kg/m3
mass density (362.64 K, 8000 kPa, x2 = 0.9014): 716.3 ± 0.31 kg/m3
mass density (362.64 K, 9000 kPa, x2 = 0.1011): 684.33 ± 0.35 kg/m3
mass density (362.64 K, 9000 kPa, x2 = 0.4963): 690.44 ± 0.35 kg/m3
mass density (362.64 K, 9000 kPa, x2 = 0.9014): 717.55 ± 0.32 kg/m3
mass density (362.64 K, 10000 kPa, x2 = 0.1011): 685.43 ± 0.37 kg/m3
mass density (362.64 K, 10000 kPa, x2 = 0.4963): 691.61 ± 0.36 kg/m3
mass density (362.64 K, 10000 kPa, x2 = 0.9014): 718.74 ± 0.33 kg/m3
